For 5 compounds, methane production and methanogenesis results are on record in patent publication US7977056B2, “Methods of identifying stimulants for biogenic methane production from hydrocarbon-bearing formations” (Synthetic Genomics, Inc., priority 2008, dated 2011).

“Also recorded” adds a separate entry of the source.

The first assay relates to defined microbial assemblage. The assay can be described thus: Stimulation of methane production by a defined microbial assemblage grown on coal as sole carbon source. The class given is cell-based. Conditions: defined microbial assemblage, in vitro culture with coal as sole carbon source, after stimulation with the substance. How it is done: The availability of a defined microbial assemblage producing methane from coal in vitro, as well as a suite of strains capable of aerobic coal degradation prompted laboratory experiments where various stimulants were tested for their effect on methane production.
This degradation is stimulated by the addition of oxygen as reactant for the oxygenase-classes of enzymes present in some of the strains included in the DMA.
With `OCC(O)CO` [glycerol], the methane production entry is listed as “increased methane production”.

In the case of `CN(C)C` [trimethylamine], the methane production entry was “increased methane production”.

In the case of `O=O` [oxygen], the methane production entry was “greatest increase in methane production; also recorded: increased methane production”.

As for `[HH]` [H2, hydrogen], the methane production result is “increased methane production”.

`CC(=O)O` [acetate]: the methane production entry is “increased methane production”.

Staying with this assay, now noted: oxygen applied at higher than optimal levels.
As for `O=O` [oxygen], the methanogenesis entry is given as “represses methanogenesis”.
